Measured values as given in patent US12338237B2, “Derivatives having 1,2,3,4-tetrahydronaphthalene moiety or pharmaceutically acceptable salt thereof and pharmaceutical compositions comprising the same” (YUHAN CORPORATION, priority 2019, dated 2025).
Read-outs that look alike come from different tables or passages of the source.

Experiments:
GM1 production = assay: cells; format: cell-based
[1] = molecular target: glucosylceramide synthase (GCS) (Homo sapiens (Human), UniProt Q16739); assay: Evaluation of inhibitory activities against GCS (enzyme reaction with A549 cell lysate, NBD C6-ceramide, HPLC fluorescence); format: biochemical; settings: GCS activity in A549 cell lysate, 37° C. for 90 minutes
Sequence of glucosylceramide synthase (GCS) (Q16739 whole entry, looked up): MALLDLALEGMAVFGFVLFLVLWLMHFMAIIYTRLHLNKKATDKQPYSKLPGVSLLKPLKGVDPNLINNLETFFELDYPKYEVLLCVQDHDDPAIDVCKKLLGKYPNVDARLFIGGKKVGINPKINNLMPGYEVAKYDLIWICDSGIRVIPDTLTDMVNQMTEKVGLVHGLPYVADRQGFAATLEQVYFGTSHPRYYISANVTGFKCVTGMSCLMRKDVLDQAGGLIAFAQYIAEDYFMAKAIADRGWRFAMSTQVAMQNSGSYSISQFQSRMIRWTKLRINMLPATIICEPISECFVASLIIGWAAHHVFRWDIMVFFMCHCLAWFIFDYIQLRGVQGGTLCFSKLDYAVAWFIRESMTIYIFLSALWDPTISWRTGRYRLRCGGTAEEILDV
Summary of the method: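 Lysate of A549 cells in 50 mM HEPES pH 7.3 incubated with test compound and NBD C6-ceramide at 37 °C for 90 min; lipids extracted with chloroform/methanol and GlcCer and ceramide peaks quantified by HPLC fluorescence. Activity from GlcCer area fraction, normalised between DMSO and ibiglustat controls.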

Row | SMILES | IC50 (GM1 production; Homo sapiens, Jurkat, 72 h) [nM] | IC50 [1] [nM] | IC50 (GM1 production; read-out: IC50) [nM]
1 | CN(C)c1cccc(-c2ccc3c(c2)CCC(C)(C)C3NC(=O)O[C@@H]2CN3CCC2CC3)c1 (stereo partly drawn) [Example 131, (S)-quinuclidin-3-yl (6-(3-(dimethylamino)phenyl)-2,2-dimethyl-1,2,3,4-tetrahydronaphthalen-1-yl)carbamate] | 2.3 | 1.49 | 
2 | CC(C)Oc1cccc(-c2ccc3c(c2)CCC(C)(C)C3NC(=O)O[C@@H]2CN3CCC2CC3)c1 (stereo partly drawn) [Example 132, (S)-quinuclidin-3-yl (6-(3-isopropoxyphenyl)-2,2-dimethyl-1,2,3,4-tetrahydronaphthalen-1-yl)carbamate] | 2 | 1.16 | 
3 | COc1cccc(-c2ccc3c(c2)CCC(C)(C)C3NC(=O)O[C@@H]2CN3CCC2CC3)c1OC (stereo partly drawn) [Example 133, (S)-quinuclidin-3-yl (6-(2,3-dimethoxyphenyl)-2,2-dimethyl-1,2,3,4-tetrahydronaphthalen-1-yl)carbamate] | 1 | 1.05 | 
4 | COc1ccc(-c2ccc3c(c2)CCC(C)(C)C3NC(=O)O[C@@H]2CN3CCC2CC3)c(OC)c1 (stereo partly drawn) [Example 134, (S)-quinuclidin-3-yl (6-(2,4-dimethoxyphenyl)-2,2-dimethyl-1,2,3,4-tetrahydronaphthalen-1-yl)carbamate] | 6.6 | 2.95 | 
5 | COc1ccc(OC)c(-c2ccc3c(c2)CCC(C)(C)C3NC(=O)O[C@@H]2CN3CCC2CC3)c1 (stereo partly drawn) [Example 135, (S)-quinuclidin-3-yl (6-(2,5-dimethoxyphenyl)-2,2-dimethyl-1,2,3,4-tetrahydronaphthalen-1-yl)carbamate] | 8.3 | 2.81 | 
6 | COc1cccc(OC)c1-c1ccc2c(c1)CCC(C)(C)C2NC(=O)O[C@@H]1CN2CCC1CC2 (stereo partly drawn) [Example 136, (S)-quinuclidin-3-yl (6-(2,6-dimethoxyphenyl)-2,2-dimethyl-1,2,3,4-tetrahydronaphthalen-1-yl)carbamate] | 21.2 | 9.22 | 
7 | COc1ccc(-c2ccc3c(c2)CCC(C)(C)C3NC(=O)O[C@@H]2CN3CCC2CC3)cc1OC (stereo partly drawn) [Example 137, (S)-quinuclidin-3-yl (6-(3,4-dimethoxyphenyl)-2,2-dimethyl-1,2,3,4-tetrahydronaphthalen-1-yl)carbamate] | 8.4 | 2.14 | 
8 | COc1cc(OC)cc(-c2ccc3c(c2)CCC(C)(C)C3NC(=O)O[C@@H]2CN3CCC2CC3)c1 (stereo partly drawn) [Example 138, (S)-quinuclidin-3-yl (6-(3,5-dimethoxyphenyl)-2,2-dimethyl-1,2,3,4-tetrahydronaphthalen-1-yl)carbamate] | 3.8 | 1.19 | 
9 | COc1ccc(-c2ccc3c(c2)CCC(C)(C)C3NC(=O)O[C@@H]2CN3CCC2CC3)cc1Cl (stereo partly drawn) [Example 139, (S)-quinuclidin-3-yl (6-(3-chloro-4-methoxyphenyl)-2,2-dimethyl-1,2,3,4-tetrahydronaphthalen-1-yl)carbamate] | 8.8 | 4.78 | 
10 | CCOc1ccc(-c2ccc3c(c2)CCC(C)(C)C3NC(=O)O[C@@H]2CN3CCC2CC3)cc1Cl (stereo partly drawn) [Example 140, (S)-quinuclidin-3-yl (6-(3-chloro-4-ethoxyphenyl)-2,2-dimethyl-1,2,3,4-tetrahydronaphthalen-1-yl)carbamate] | 1.4 | 1.49 | 
11 | CCCOc1ccc(-c2ccc3c(c2)CCC(C)(C)C3NC(=O)O[C@@H]2CN3CCC2CC3)cc1Cl (stereo partly drawn) [Example 141, (S)-quinuclidin-3-yl (6-(3-chloro-4-propoxyphenyl)-2,2-dimethyl-1,2,3,4-tetrahydronaphthalen-1-yl)carbamate] | 1.1 | 1.51 | 
12 | CC(C)Oc1ccc(-c2ccc3c(c2)CCC(C)(C)C3NC(=O)O[C@@H]2CN3CCC2CC3)cc1F (stereo partly drawn) [Example 142, (S)-quinuclidin-3-yl (6-(3-fluoro-4-isopropoxyphenyl)-2,2-dimethyl-1,2,3,4-tetrahydronaphthalen-1-yl)carbamate] | 3.4 | 1.11 | 
13 | CCCCOc1ccc(-c2ccc3c(c2)CCC(C)(C)C3NC(=O)O[C@@H]2CN3CCC2CC3)cc1Cl (stereo partly drawn) [Example 143, (S)-quinuclidin-3-yl (6-(4-butoxy-3-chlorophenyl)-2,2-dimethyl-1,2,3,4-tetrahydronaphthalen-1-yl)carbamate] | 0.5 | 1.44 | 
14 | CCOc1ccc(-c2ccc3c(c2)CCC(C)(C)C3NC(=O)O[C@@H]2CN3CCC2CC3)cc1F (stereo partly drawn) [Example 144, (S)-quinuclidin-3-yl (6-(4-ethoxy-3-fluorophenyl)-2,2-dimethyl-1,2,3,4-tetrahydronaphthalen-1-yl)carbamate] | 1.6 | 1.39 | 
15 | CCCOc1ccc(-c2ccc3c(c2)CCC(C)(C)C3NC(=O)O[C@@H]2CN3CCC2CC3)cc1F (stereo partly drawn) [Example 145, (S)-quinuclidin-3-yl (6-(3-fluoro-4-propoxyphenyl)-2,2-dimethyl-1,2,3,4-tetrahydronaphthalen-1-yl)carbamate] | 0.7 | 0.87 | 
16 | CCCOc1c(C)cc(-c2ccc3c(c2)CCC(C)(C)C3NC(=O)O[C@@H]2CN3CCC2CC3)cc1C (stereo partly drawn) [Example 146, (S)-quinuclidin-3-yl (6-(3,5-dimethyl-4-propoxyphenyl)-2,2-dimethyl-1,2,3,4-tetrahydronaphthalen-1-yl) carbamate] |  | 1.8 | 0.8
17 | CCCCOc1c(C)cc(-c2ccc3c(c2)CCC(C)(C)C3NC(=O)O[C@@H]2CN3CCC2CC3)cc1C (stereo partly drawn) [Example 147, (S)-quinuclidin-3-yl (6-(4-butoxy-3,5-dimethylphenyl)-2,2-dimethyl-1,2,3,4-tetrahydronaphthalen-1-yl)carbamate] | 0.1 | 1 | 
18 | COc1ccc(-c2ccc3c(c2)CCC(C)(C)C3NC(=O)O[C@@H]2CN3CCC2CC3)c(F)c1 (stereo partly drawn) [Example 148, (S)-quinuclidin-3-yl (6-(2-fluoro-4-methoxyphenyl)-2,2-dimethyl-1,2,3,4-tetrahydronaphthalen-1-yl)carbamate] | 4.6 | 3.21 | 
19 | CC(C)Oc1ccc(-c2ccc3c(c2)CCC(C)(C)C3NC(=O)O[C@@H]2CN3CCC2CC3)cc1Cl (stereo partly drawn) [Example 149, (S)-quinuclidin-3-yl (6-(3-chloro-4-isopropoxyphenyl)-2,2-dimethyl-1,2,3,4-tetrahydronaphthalen-1-yl)carbamate] | 3.9 | 3.5 | 
20 | CC(=O)c1sccc1-c1ccc2c(c1)CCC(C)(C)C2NC(=O)O[C@@H]1CN2CCC1CC2 (stereo partly drawn) [Example 150, (S)-quinuclidin-3-yl (6-(2-acetylthiophen-3-yl)-2,2-dimethyl-1,2,3,4-tetrahydronaphthalen-1-yl)carbamate] | 17.1 | 8.7 | 
21 | CC1(C)CCc2ccc(-c3ccc(F)cc3)cc2C1NC(=O)O[C@@H]1CN2CCC1CC2 (stereo partly drawn) [Example 151, (S)-quinuclidin-3-yl (7-(4-fluorophenyl)-2,2-dimethyl-1,2,3,4-tetrahydronaphthalen-1-yl)carbamate] | 33.4 | 7.27 | 
22 | CC1(C)CCc2ccc(-c3ccc(Cl)cc3)cc2C1NC(=O)O[C@@H]1CN2CCC1CC2 (stereo partly drawn) [Example 152, (S)-quinuclidin-3-yl (7-(4-chlorophenyl)-2,2-dimethyl-1,2,3,4-tetrahydronaphthalen-1-yl)carbamate] | 25.9 | 5.72 | 
